The target in experiment [1] is T1, Serine/threonine-protein kinase DCLK3 (Homo sapiens) (UniProt Q9C098).
T1 sequence (whole entry): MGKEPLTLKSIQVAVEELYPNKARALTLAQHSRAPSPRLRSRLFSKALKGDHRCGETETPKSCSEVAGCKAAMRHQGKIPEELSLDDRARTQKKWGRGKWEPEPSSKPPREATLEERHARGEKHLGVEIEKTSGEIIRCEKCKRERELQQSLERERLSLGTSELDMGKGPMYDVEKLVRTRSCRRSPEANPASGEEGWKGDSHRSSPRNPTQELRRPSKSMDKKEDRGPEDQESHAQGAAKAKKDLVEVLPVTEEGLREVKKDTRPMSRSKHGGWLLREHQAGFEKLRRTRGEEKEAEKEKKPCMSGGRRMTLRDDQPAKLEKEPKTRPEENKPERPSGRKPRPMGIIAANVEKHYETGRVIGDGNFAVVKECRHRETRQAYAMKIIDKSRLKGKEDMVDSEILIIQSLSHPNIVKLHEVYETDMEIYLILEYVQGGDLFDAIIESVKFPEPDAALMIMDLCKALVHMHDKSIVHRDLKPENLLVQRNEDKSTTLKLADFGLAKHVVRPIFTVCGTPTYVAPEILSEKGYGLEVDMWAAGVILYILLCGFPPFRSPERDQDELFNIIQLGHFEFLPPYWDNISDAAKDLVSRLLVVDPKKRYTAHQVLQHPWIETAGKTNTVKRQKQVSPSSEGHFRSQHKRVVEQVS
As to the kind of experiment: Selectivity interaction (KinomeScan (DiscoverX)) EUB0000595a DCLK3. The conditions noted are these: at 10 µM.

The target in experiment [2] is T2, Non-receptor tyrosine-protein kinase TYK2 (Homo sapiens, UniProt P29597). As to the kind of experiment: Selectivity interaction (KinomeScan (DiscoverX)) EUB0001619a TYK2. The settings on record: at 1 µM.
T2 sequence (P29597 whole entry): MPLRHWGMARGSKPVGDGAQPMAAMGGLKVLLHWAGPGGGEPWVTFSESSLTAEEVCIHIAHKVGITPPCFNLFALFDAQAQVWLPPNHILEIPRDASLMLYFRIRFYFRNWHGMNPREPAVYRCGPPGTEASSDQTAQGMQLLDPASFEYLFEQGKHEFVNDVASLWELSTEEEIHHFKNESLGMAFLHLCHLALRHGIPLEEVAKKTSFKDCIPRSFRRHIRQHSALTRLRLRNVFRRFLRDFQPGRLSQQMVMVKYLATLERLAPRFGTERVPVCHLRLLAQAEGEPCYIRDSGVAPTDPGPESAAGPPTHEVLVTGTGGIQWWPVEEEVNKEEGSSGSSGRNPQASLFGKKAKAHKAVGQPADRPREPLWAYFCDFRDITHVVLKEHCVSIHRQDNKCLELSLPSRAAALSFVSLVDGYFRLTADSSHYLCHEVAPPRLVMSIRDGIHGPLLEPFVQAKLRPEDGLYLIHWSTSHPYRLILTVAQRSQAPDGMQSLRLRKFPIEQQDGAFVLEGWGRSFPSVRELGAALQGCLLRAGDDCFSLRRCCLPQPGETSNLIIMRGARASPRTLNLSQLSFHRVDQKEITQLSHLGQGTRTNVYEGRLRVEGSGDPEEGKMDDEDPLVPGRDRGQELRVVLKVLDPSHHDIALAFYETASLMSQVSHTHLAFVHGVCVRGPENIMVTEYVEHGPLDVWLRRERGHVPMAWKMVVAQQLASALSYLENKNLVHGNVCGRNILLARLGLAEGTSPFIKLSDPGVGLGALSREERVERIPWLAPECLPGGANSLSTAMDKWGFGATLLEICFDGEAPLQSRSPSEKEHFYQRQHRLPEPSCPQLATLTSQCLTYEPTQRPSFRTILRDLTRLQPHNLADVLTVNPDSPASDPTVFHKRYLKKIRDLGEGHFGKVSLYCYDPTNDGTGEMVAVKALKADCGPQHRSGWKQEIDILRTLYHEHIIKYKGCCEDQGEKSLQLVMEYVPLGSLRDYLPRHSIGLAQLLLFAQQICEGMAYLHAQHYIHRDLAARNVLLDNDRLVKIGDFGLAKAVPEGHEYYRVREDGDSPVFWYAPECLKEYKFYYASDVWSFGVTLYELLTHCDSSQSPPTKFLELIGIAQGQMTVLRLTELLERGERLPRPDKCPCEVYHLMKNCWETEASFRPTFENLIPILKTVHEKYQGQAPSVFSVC
In experiment [3] the target is Calcium/calmodulin-dependent protein kinase type 1D (Homo sapiens) (UniProt Q8IU85). As to the kind of experiment: Selectivity interaction (KinomeScan (DiscoverX)) EUB0000666a CAMK1D. The settings on record: at 10 µM.
Calcium/calmodulin-dependent protein kinase type 1D (Homo sapiens), sequence (Q8IU85 whole entry, looked up): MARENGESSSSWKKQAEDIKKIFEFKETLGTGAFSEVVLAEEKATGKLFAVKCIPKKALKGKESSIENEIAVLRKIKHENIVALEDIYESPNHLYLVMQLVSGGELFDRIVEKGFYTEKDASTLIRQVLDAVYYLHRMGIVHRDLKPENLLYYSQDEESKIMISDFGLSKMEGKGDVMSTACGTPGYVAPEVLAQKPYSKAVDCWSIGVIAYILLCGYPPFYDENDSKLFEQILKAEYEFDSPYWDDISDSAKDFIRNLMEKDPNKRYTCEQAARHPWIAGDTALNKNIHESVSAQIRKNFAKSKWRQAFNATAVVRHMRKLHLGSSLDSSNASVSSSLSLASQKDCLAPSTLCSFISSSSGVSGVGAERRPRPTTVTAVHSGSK
Experiment [4] deals with T3, Mitogen-activated protein kinase kinase kinase 6 (Homo sapiens) (UniProt O95382).
T3 sequence (whole entry): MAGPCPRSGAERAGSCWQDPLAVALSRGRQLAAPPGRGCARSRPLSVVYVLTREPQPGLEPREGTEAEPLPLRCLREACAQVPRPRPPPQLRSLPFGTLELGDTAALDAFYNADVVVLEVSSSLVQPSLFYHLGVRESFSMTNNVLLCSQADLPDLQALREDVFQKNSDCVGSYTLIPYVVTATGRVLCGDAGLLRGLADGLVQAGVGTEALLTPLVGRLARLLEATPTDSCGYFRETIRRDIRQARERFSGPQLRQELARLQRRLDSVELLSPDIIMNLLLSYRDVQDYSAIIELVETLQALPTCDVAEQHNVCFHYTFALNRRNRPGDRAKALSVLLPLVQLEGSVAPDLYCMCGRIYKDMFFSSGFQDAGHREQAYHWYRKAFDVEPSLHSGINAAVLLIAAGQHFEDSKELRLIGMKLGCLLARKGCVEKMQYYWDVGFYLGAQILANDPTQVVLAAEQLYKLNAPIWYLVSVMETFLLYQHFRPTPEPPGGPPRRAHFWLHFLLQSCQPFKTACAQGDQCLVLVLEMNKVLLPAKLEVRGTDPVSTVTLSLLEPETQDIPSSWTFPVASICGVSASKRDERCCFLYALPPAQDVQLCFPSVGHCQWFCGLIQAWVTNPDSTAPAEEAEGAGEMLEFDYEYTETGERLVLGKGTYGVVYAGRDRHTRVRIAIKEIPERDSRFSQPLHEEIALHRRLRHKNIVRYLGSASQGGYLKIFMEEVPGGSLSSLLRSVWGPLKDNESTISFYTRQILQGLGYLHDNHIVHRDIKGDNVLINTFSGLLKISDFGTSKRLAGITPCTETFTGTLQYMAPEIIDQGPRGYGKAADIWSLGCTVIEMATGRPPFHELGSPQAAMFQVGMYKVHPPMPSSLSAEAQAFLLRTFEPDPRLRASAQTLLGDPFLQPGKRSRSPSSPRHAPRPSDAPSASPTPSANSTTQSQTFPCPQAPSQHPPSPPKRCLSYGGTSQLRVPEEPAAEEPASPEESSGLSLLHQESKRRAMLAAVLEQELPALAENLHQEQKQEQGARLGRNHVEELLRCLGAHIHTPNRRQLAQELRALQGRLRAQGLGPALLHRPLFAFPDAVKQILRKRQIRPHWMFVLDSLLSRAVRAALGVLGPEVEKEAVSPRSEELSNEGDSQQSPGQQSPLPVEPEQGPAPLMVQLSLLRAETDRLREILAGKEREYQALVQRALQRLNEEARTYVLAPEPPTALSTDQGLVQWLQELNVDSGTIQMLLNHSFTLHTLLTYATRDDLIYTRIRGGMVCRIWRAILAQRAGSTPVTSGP
In words: Selectivity interaction (KinomeScan (DiscoverX)) EUB0000045b MAP3K6.

The target in another experiment is Aurora kinase B (Homo sapiens, UniProt Q96GD4). In words: Selectivity interaction (KinomeScan (DiscoverX)) EUB0000045b AURKB.
Aurora kinase B, sequence (Q96GD4 whole entry): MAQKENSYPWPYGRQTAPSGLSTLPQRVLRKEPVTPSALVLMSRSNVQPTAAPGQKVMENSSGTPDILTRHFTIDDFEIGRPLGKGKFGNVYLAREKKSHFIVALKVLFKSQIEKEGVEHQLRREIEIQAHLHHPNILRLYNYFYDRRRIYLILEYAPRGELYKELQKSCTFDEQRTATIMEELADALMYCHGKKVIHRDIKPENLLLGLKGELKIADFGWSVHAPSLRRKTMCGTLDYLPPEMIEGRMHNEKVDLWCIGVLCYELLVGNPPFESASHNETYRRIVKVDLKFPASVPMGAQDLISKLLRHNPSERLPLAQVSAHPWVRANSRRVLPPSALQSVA
Experiment [5] addresses T2, Non-receptor tyrosine-protein kinase TYK2. In words: Selectivity interaction (KinomeScan (DiscoverX)) EUB0001049a TYK2. The settings on record: at 1 µM.
The target of experiment [6] is Serine/threonine-protein kinase 38 (Homo sapiens) (UniProt Q15208). As to the kind of experiment: Selectivity interaction (KinomeScan (DiscoverX)) EUB0001049a STK38. The conditions noted are these: at 1 µM.
Serine/threonine-protein kinase 38 (Homo sapiens), sequence (Q15208 2-465 limits assumed): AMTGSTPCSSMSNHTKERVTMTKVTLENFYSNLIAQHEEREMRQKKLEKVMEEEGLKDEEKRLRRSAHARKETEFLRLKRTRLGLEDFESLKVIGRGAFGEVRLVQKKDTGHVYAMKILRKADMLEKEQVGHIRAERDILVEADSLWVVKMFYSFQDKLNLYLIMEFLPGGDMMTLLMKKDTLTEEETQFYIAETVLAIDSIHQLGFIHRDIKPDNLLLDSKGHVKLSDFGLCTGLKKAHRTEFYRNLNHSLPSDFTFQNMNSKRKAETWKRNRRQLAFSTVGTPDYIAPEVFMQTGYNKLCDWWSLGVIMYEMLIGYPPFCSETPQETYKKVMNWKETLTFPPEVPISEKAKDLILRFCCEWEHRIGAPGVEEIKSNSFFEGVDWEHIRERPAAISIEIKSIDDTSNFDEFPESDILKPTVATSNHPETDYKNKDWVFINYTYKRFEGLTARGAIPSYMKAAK
For experiment [7], the target named is Sodium-dependent noradrenaline transporter (Homo sapiens, UniProt P23975). As to the kind of experiment: Selectivity interaction (Panel of non-epigenetic targets (kinases, GPCRs, ion channels, and transporters, Eurofins) ) EUB0000271b SLC6A2. The conditions noted are these: at 1 µM.
Sodium-dependent noradrenaline transporter, sequence (P23975 whole entry): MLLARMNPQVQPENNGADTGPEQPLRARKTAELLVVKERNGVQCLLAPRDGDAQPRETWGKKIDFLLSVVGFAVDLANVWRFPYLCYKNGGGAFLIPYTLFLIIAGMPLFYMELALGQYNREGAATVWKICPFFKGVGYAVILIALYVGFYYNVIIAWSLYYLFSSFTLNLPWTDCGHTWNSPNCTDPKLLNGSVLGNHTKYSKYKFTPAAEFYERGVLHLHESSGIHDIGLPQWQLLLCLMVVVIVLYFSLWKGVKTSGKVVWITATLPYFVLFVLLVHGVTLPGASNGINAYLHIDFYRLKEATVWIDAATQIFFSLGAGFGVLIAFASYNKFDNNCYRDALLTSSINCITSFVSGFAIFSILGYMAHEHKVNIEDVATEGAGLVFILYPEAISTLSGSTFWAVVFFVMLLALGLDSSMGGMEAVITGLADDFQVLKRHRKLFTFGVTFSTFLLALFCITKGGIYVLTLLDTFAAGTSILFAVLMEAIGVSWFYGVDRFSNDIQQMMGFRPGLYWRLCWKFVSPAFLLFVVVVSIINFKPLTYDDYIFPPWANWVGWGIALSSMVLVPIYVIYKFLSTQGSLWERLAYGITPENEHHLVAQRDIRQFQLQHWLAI

`COCC(=O)NC/C=C/c1ccc2ncnc(Nc3ccc(Oc4ccc(C)nc4)c(C)c3)c2c1` [CP-724714] yielded a % of control in experiment [1] of 83%.

As for `N#Cc1cccc(-c2c[nH]c3ncnc(N4CCOCC4)c23)c1`, the % of control in experiment [2] was 75%.

With `O=C(NOC[C@H](O)CO)c1ccc(F)c(F)c1Nc1ccc(I)cc1F`, the % of control in experiment [3] worked out at 89%.

`C=CC(=O)Nc1cc(-n2c(=O)ccc3cnc4ccc(-c5ccc(NS(C)(=O)=O)cc5)cc4c32)ccc1C`: the % of control worked out at 100% in experiment [4] (at 1 µM), 100% in experiment [4] (at 10 µM), 100% at Aurora kinase B (at 1 µM) and 75% at Aurora kinase B (at 10 µM).

As for `COc1cc(Nc2nc(C)cc(-c3cnn4nc(OC)ccc34)n2)cc(C(F)(F)F)c1`, the % of control in experiment [5] and in experiment [6] was 90% in each case.

For `Cc1cc(C)cc([C@@H]2c3cc(C)ccc3NC(=O)CN2C(=O)c2ccc(Br)s2)c1`, the % of inhibition in experiment [7] is -4%.

The record behind these values is ChEMBL document CHEMBL5465560, “Selectivity Literature for EUbOPEN Chemogenomic Library” (2024).
